In ChEMBL document CHEMBL4257544, “Synthesis and biological evaluation of novel asymmetric naphthalene diimide derivatives as anticancer agents depending on ROS generation” (Medchemcomm, 2018):

What was measured:
[1] = system: HepG2; assay: Cytotoxicity against human HepG2 cells after 48 hrs by MTT assay; type: functional, cell-based; settings: HepG2, 48 h
[2] = system: SMMC-7721; assay: Cytotoxicity against human SMMC7721 cells after 48 hrs by MTT assay; type: functional, cell-based; settings: SMMC-7721, 48 h
[3] = system: MDA-MB-231; assay: Cytotoxicity against human MDA-MB-231 cells after 48 hrs by MTT assay; type: functional, cell-based; settings: MDA-MB-231, 48 h
[4] = system: MCF7; assay: Cytotoxicity against human MCF7 cells after 48 hrs by MTT assay; type: functional, cell-based; settings: MCF7, 48 h
[5] = system: HCT-116; assay: Cytotoxicity against human HCT116 cells after 48 hrs by MTT assay; type: functional, cell-based; settings: HCT-116, 48 h
[6] = Solubility of the compound; type: physicochemical

Row | solubility [6] | Compound | IC50 [1] [µM] | IC50 [2] [µM] | IC50 [3] [µM] | IC50 [4] [µM] | IC50 [5] [µM]
1 | – | CN(C)CCCN1C(=O)c2ccc3c4c(ccc(c24)C1=O)C(=O)N(CCCO)C3=O | 5.96 | 4.44 | 6.21 | 3.36 | 5.29
2 | Insoluble | CCCCN1C(=O)c2ccc3c4c(ccc(c24)C1=O)C(=O)N(CC1CC1)C3=O | > 50 | > 50 | > 50 | > 50 | 32.3
3 | – | CN(C)CCN1C(=O)c2cccc3cc(N)cc(c23)C1=O [AMONAFIDE] | 9.45 | 9.37 | 6.62 | 12.9 | 6.46
4 | Insoluble | CCCCN1C(=O)c2ccc3c4c(ccc(c24)C1=O)C(=O)N(CC(C)C)C3=O | 45.2 | 36.4 | > 50 | 39.6 | 28.2
5 | – | O=C1c2ccc3c4c(ccc(c24)C(=O)N1CCCO)C(=O)N(CCCN1CCOCC1)C3=O | 3.08 | 2.7 | 7.64 | 6.98 | 4.35
6 | – | CC(C)CN1C(=O)c2ccc3c4c(ccc(c24)C1=O)C(=O)N(CCCO)C3=O | 4.14 | 3.8 | 5.39 | 4.78 | 8.29
7 | – | CCCCN1C(=O)c2ccc3c4c(ccc(c24)C1=O)C(=O)N(CCCN1CCOCC1)C3=O | 30.6 | 25.4 | 18.2 | 21.4 | 32.7
8 | – | CCCCN1C(=O)c2ccc3c4c(ccc(c24)C1=O)C(=O)N(c1ncccn1)C3=O | 17 | 35.1 | 15.1 | 12.6 | 9.22
9 | Insoluble | CCCCN1C(=O)c2ccc3c4c(ccc(c24)C1=O)C(=O)N(C1CCCCC1)C3=O | > 50 | > 50 | > 50 | > 50 | 45.9
10 | – | CCCCN1C(=O)c2ccc3c4c(ccc(c24)C1=O)C(=O)N(c1cccnc1)C3=O | 35.9 | 37.9 | > 50 | > 50 | 36.3
11 | Insoluble | CCCCN1C(=O)c2ccc3c4c(ccc(c24)C1=O)C(=O)N(CCC)C3=O | > 50 | > 50 | > 50 | > 50 | > 50
12 | Insoluble | CCCCN1C(=O)c2ccc3c4c(ccc(c24)C1=O)C(=O)N(C1CC1)C3=O | > 50 | > 50 | > 50 | > 50 | 16.3
